The results in this text go back to patent US4689326A, “Process for controlling hyperlipidemia” (Research Corporation, priority 1985, dated 1987).

The target of one test is T1, HMG CoA Reductase (Mus musculus, UniProt Q01237).
T1 construct: 10% homogenates of CF1 male mouse liver; from tissue; host or cells: CF1 male mouse liver, 10% homogenate
T1 sequence (Q01237 1-887): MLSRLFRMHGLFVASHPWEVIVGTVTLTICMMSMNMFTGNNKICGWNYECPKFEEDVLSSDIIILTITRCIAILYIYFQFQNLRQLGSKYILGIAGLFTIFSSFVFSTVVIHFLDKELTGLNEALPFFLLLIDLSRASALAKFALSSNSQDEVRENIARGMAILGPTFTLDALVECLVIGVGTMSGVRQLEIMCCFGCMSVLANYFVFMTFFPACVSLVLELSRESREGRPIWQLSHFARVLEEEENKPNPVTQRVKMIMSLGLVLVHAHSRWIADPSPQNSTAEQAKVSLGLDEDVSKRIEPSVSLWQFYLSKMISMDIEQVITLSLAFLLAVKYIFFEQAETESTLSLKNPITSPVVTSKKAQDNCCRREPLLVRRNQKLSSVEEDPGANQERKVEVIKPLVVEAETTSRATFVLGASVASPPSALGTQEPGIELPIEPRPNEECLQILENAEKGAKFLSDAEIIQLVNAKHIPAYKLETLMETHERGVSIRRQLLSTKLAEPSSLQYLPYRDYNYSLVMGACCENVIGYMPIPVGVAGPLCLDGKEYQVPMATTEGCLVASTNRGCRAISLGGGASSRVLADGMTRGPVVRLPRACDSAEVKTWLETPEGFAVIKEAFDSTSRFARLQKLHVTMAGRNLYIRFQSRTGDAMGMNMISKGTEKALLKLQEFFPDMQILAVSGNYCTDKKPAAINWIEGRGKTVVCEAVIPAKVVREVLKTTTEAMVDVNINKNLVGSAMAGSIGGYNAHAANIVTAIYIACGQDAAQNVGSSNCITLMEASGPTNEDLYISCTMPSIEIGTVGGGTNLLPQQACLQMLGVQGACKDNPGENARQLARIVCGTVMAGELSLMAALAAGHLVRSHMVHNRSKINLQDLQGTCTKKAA
Briefly: In vitro enzyme activity, liver homogenate: HMG CoA reductase. The test is classed as biochemical, CF1 male mouse. The following applies: ± SD, N = 6, read-out: Percent Control, in vitro enzyme activity. The procedure:
In vitro enzymatic studies were undertaken using 10% homogenates of CF1 male mouse liver with […] of compound 3,4,5,6-dibenzohomopiperidine. In addition, in vivo enzymatic studies were performed, again using 10% liver homogenates (prepared in 0.25 M sucrose plus 0.001 M (ethylenedinitrilo)-tetraacetic acid, ph 7.25 from CF1 male mice obtained after administering 3,4,5,6-dibenzohomopiperidine for 16 days at a concentration ranging from 10 to 60 mg/kg/day, intraperitoneally.
The following enzyme activities were determined by following standard literature procedures: acetyl coenzyme synthetase; adenosine triphosphate dependent citrate lyase; mitochondrial citrate exchange; cholesterol/7 hydroxylase; 3-hydroxy-3-methyl-glutaryl coenzyme A reductase; acetyl coenzyme A carboxylase activity; fatty acid synthetase activity; sn-glycerol-3-phosphate acyl transferase activity; phosphatidate phosphohydrolase activity; cholesterol acyl transferase; and heparin activated hepatic lypoprotein lipase. Protein was determined for all enzyme assays by the Lowry et al. technique (J. Biol. Chem, 193, 265 (1951)).

The test system of a further test is serum triglycerides. Briefly: Testing of Normal Mice: serum triglycerides (BioDynamics kit), Example 7. It is filed as in vivo, CF1 male mice. The following applies: Mus musculus, 384 h; 20 mg/kg/day ip, day 16, ± SD. The protocol: Suspensions of Compounds Nos. 1-9 were prepared wherein the compounds were suspended in an aqueous 1% carboxymethylcelluose solution, homogenized and administered to CF1 male mice, each weighing approximately 25 grams, intraperitoneally on a daily basis for 16 days. The dosage was, with the exception of one compound, 20 milligrams of the active compound per kilogram of mouse weight per day. On days 9 and 16 blood was obtained by tail vein bleeding. The blood serum was separated by centrifugation for three minutes. Serum cholesterol levels were determined by a modification of the Liebermann-Burchard reaction. Serum was also collected on day 16 and the triglycerides content was determined by a commercial kit, BioDynamics/bnc Single Vile Colorimetric Method 348201. Each compound was tested on a group of six mice.
In addition to the above-described treated mice, untreated control groups of six mice were similarly tested on days 9 and 14 or 16 to determine their serum cholesterol and triglycerides blood levels. Table 5 reports the percent control, based on the serum cholesterol and serum triglyceride levels of the treated mice compared to the untreated controls. Table 5 also includes the standard deviation indicating the level of confidence of these numbers.
Example 7 was repeated substituting clofibrate, a compound used in the prior art to lower serum cholesterol and serum triglyceride levels. The clofibrate was administered as a suspension in an aqueous 1% solution of carboxymethylcellulose. However, unlike the compounds of the present invention which were administered at a dosage of 20 mg/kg day, ip, this compound was administered at the elevated concentration of 150 mg/kg day, ip.

The structures appear in SMILES notation.

As to `c1ccc2c(c1)CNCc1ccccc1-2` [Compound 3, 3,4,5,6-dibenzohomopiperidine], on HMG CoA Reductase (50 μM), the remaining activity at 50 µM amounted to 95 ± 5%. Besides, at HMG CoA Reductase (100 μM), the remaining activity at 100 µM was determined as 151 ± 9%. For the same compound, the remaining activity at 200 µM on HMG CoA Reductase (200 μM) is 255 ± 8%. The compound further showed a response vs control in vivo at 20 mg/kg with serum triglycerides of 49 ± 5%.
